Counter-ions that a name gives are not always drawn.
Key:
[1] = test system: prurigo nodularis patients; assay: TR03ext (Example 3), titrated 30 mg QD to 180 mg BID: ItchyQoL Total Score; type: in vivo, human; details: Baseline 75.2 (15.1)
Excerpt: This clinical study was a Phase 2 Open Label Extension Study (clinical study TR03ext) of the randomized, double-blind, 3-parallel arm, placebo controlled dose ranging study described in Example 2. All those subjects who were randomized, and then completed Example 2 study, were eligible to participate in the Extension Study.
The primary endpoint was a description of the overall incidence and nature of Treatment-Emergent AEs (TEAES) during weeks 5-50 of the study. Exploratory efficacy endpoints included Change from Baseline patient reported outcome measures of Worst itch NRS, itchy VRS and ItchyQoL, by Treatment Period study visit and Baseline NRS score. There was also an assessment of any potential skin lesion changes over time using the metrics of the PAS.
Of the 63 patients that were randomized to the study of Example 2, 36 subjects who enrolled into Extension Study entered the Treatment Period of the study and were exposed to nalbuphine HCl ER tablet administration and are the basis of the study safety population analysis.
Patients in Extension Study were titrated over a dose range of 30 mg QD to 180 mg BID based on tolerability. The selected dose range was based on Example 2 study whereby patients were titrated from a 30 mg QD dose either to 30 mg BID, 60 mg BID, 90 mg BID, 120 mg BID or a 180 mg BID dose. The highest dose proposed was 180 mg BID (360 mg daily dose), and was well below the highest recommended daily treatment of 160 mg IV (equivalent to 960 mg oral) for the current marketed parenteral administered product.
The study duration for each patient was up to 52 weeks, with up to 50 weeks on study drug. The Extension Study consisted of a Treatment Period (that was followed by a Washout Safety Follow-up Period) and an Observation Period. Patients either entered directly into a drug Treatment Period (NRS >5) or a no-drug Observation Period (NRS ≤5) based on their reported NRS scores on the first Visit (Visit 1a). For up to 12 Extended Screening weeks, patients in the no-drug Observation Period could have also transitioned into the drug Treatment Period if their NRS increased to NRS >5. All patients entering the Treatment Period, whether immediately upon study entry or following a period of time in the Observation Period, were titrated to a dose ranging between 30 mg up to 180 mg BID, the highest dose tested in Example 2.

[2] = test system: prurigo nodularis patients; assay: Double-blind, placebo-controlled trial in prurigo nodularis patients (Example 2): 7-day average daily Worst Itching Intensity NRS (0-10); type: in vivo, human
Experimental: This clinical study was a double-blind, placebo-controlled trial in which prurigo nodularis patients were randomized in a 1:1:1 ratio to nalbuphine ER tablets to a target dose of 90 mg twice daily (BID), nalbuphine HCl ER tablets 180 mg BID, or placebo tablets BID. Use of nonsedating rescue antihistamine medications (non-first generation H1-antihistamines [Simons F E. Advances in H1-antihistamines. N Engl J Med. 2004; 351(21):2203-17.]) were allowed in the study but their use was recorded. Cleansing emollients were allowed for hygiene purposes provided there were no active substances (such as menthol or urea) contained in the lotion. A placebo comparator was chosen because there are no approved treatments for prurigo nodularis in the United States or Europe or an established standard of care that could serve as an active control.
The primary objectives were to evaluate the effects of two doses of nalbuphine HCl ER tablets on the 7-day average daily worst itch (i.e., most severe) intensity using a Worst Itching Intensity Numerical Rating Scale (NRS, 0 [no itching]-10 [worst possible itching]; range, 0-10; anchors at 0 “no itching”; 4-6 “moderate itching”; and 10 “worst possible itching”) (FIG. 1) as well as safety and tolerability. The study was conducted at four North American sites and four European sites. The Sponsor oversaw the conduct of the trial and an independent unblinded Data Safety Monitoring Board reviewed safety data approximately once a month during the conduct of the trial.
The initial primary endpoint was the proportion of patients who achieved at least 30% reduction threshold in 7-day average daily diary-reported worst itch intensity NRS score from baseline to Week 10/last observed post-baseline value (LOV). For the primary endpoint, a responder was a patient who achieved at least 30% reduction threshold in 7-day average daily diary-reported worst itch intensity NRS score from baseline to Week 10/last observed post-baseline value (LOV).
Before study completion and unblinding, however, a more substantial 50% NRS reduction criterion was added as an important definition of response. For this criterion, a responder was a patient who achieved at least 50% reduction threshold in 7-day average daily diary-reported worst itch intensity NRS score from baseline to Week 10/last observed post-baseline value (LOV).
The modified intent-to-treat (MITT) population consisted of all randomly assigned patients who provided a baseline calculated NRS and at least one post-baseline NRS during randomized treatment. Patients were analyzed according to the treatment to which they were randomly assigned.
The primary worst itch NRS endpoint was evaluated by the calculation of proportions, and statistical testing of each nalbuphine dose and placebo was undertaken using a stratified categorical method, the Cochran-Mantel-Haenszel test that took into account site. Specifically, each nalbuphine group was compared to placebo in the form of a stratified (by site) 2×2 table with a P value reported for the nalbuphine HCl ER 180 mg BID versus placebo comparison and a P value separately reported for the nalbuphine HCl ER 90 mg BID versus placebo comparison. The lower nalbuphine dose versus placebo P value was evaluated only if the higher nalbuphine dose versus placebo P value was statistically significant at the 0.05 level. Data from all post-baseline visits were used to fit the model.
In the first 2 weeks of treatment, patients were blindly force-titrated to their assigned target dose, with the patients in the active arms reaching a dose of 90 mg BID (NAL 90) and, for those in the high dose group, to 180 mg BID (NAL 180) in the second week. Study drug was administered in blister cards containing the labeled morning and evening doses for each day of the week. Subsequently, patients continued stable doses of the study drug for an additional 8 weeks and were then washed off study drug and followed for another 2 weeks for itching intensity and safety.

Q: Which “ItchyQoL Total Score Visit Mean (SD)” value ([1]; Study Week 3, N=33) does the source give for `Oc1ccc2c3c1OC1[C@@H](O)CC[C@@]4(O)[C@@H](C2)N(CC2CCC2)CC[C@]314` (stereo partly drawn) [Nalbuphine, 17-(cyclobutylmethyl)-4,5α-epoxymorphinian-3, 6α, 14-triol, hydrochloride] here?
A: The value was 70.3 (18.7).

Q: And the “ItchyQoL Total Score Visit Mean (SD)” value ([1]; Study Week 5, N=31)?
A: Its value is 67.8 (19.0).

Q: What about the “ItchyQoL Total Score Visit Mean (SD)” value ([1]; Study Week 9, N=28) of the same compound?
A: The value was 65.8 (18.5).

Q: And the “ItchyQoL Total Score Visit Mean (SD)” value ([1]; Study Week 13, N=24)?
A: The value was 65.7 (17.4).

Q: What about the “ItchyQoL Total Score Visit Mean (SD)” value ([1]; Study Week 17, N=24) of the same compound?
A: Its value is 63.5 (19.4).

Q: What about the “ItchyQoL Total Score Visit Mean (SD)” value ([1]; Study Week 21, N=21) of the same compound?
A: The value was 62.6 (18.0).

Q: And the “ItchyQoL Total Score Visit Mean (SD)” value ([1]; Study Week 26, N=20)?
A: The value was 59.4 (16.8).

Q: And the “ItchyQoL Total Score Visit Mean (SD)” value ([1]; Study Week 30, N=19)?
A: Its value is 60.8 (18.9).

Q: What about the “ItchyQoL Total Score Visit Mean (SD)” value ([1]; Study Week 34, N=17) of the same compound?
A: Its value is 62.2 (15.2).

Q: What about the “ItchyQoL Total Score Visit Mean (SD)” value ([1]; Study Week 38, N=16) of the same compound?
A: Its value is 61.9 (16.1).

Q: What about the “ItchyQoL Total Score Visit Mean (SD)” value ([1]; Study Week 42, N=16) of the same compound?
A: The value was 63.4 (15.3).

Q: And the “ItchyQoL Total Score Visit Mean (SD)” value ([1]; Study Week 46, N=16)?
A: Its value is 62.4 (14.1).

Q: What about the “ItchyQoL Total Score Visit Mean (SD)” value ([1]; Study Week 50, N=14) of the same compound?
A: The value was 63.3 (15.9).

Q: And the “Responders: at least 30% reduction in 7-day average daily diary-reported worst itch intensity NRS score from baseline” value (shortened to “Responders: at least 30% reduction”) ([2]; 90 mg BID, Week 10 - LOV, MITT N=22, P value 0.779 vs placebo)?
A: Its value is 6 (27.3) N (%).

Q: What about the “Responders: at least 50% reduction in 7-day average daily diary-reported worst itch intensity NRS score from baseline” value (from here on “Responders: at least 50% reduction”) ([2]; 90 mg BID, Week 10 - LOV, MITT N=22, p-value 0.981 vs placebo) of the same compound?
A: Its value is 3 (13.6%) N (%).

Q: What about the “Responders: at least 30% reduction” value ([2]; 90 mg BID, Week 10 - completer, N=18, P value 0.723 vs placebo) of the same compound?
A: Its value is 6 (33.3) N (%).

Q: And the “Responders: at least 50% reduction” value ([2]; 90 mg BID, Week 10 - completer, N=18, p-value 0.649 vs placebo)?
A: The value was 2 (11.1%) N (%).

Q: And the “Responders: at least 30% reduction” value ([2]; 180 mg BID, Week 10 - LOV, MITT N=18, P value 0.323 vs placebo)?
A: The value was 8 (44.4) N (%).

Q: And the “Responders: at least 50% reduction” value ([2]; 180 mg BID, Week 10 - LOV, MITT N=18, p-value 0.083 vs placebo)?
A: Its value is 6 (33.3%) N (%).

Q: And the “Responders: at least 30% reduction” value ([2]; 180 mg BID, Week 10 - completer, N=12, P value 0.026 vs placebo)?
A: The value was 9 (75.0) N (%).

Q: And the “Responders: at least 50% reduction” value ([2]; 180 mg BID, Week 10 - completer, N=12, p-value 0.028 vs placebo)?
A: The value was 6 (50%) N (%).

Q: And the “Mean Change from Baseline to the Last Observation in the Worst Itching NRS versus placebo” value ([2]; 180 mg BID, patients who completed the study, P=0.025)?
A: Its value is “statistically significant difference”.

From patent US20220347171A1, “TREATMENT OF PRURIGO NODULARIS” (TREVI THERAPEUTICS, INC., priority 2016, published 2022)
